Reference: US4894392A, “Aminoalkyl naphthalenediols as host resistance enhancers” (priority 1988, dated 1990)
Where a name gives a salt, the structure may show the parent alone.

Tested on: Pseudomonas aeruginosa
Assay: In vivo immunopotentiation against challenge with lethal doses of Pseudomonas aeruginosa (cyclophosphamide-immunocompromised mouse model)
Set-up: species or system random outbred albino CF1 female mice
Conditions: for Relative No. LD50's (Protective Index: number of LD50's of protection of treated animals over the LD50 of CY controls): CY 250 mg/kg i.p. 4 days before P. aeruginosa challenge, test compound injected once, 2 hours after CY
Protocol: An immunocompromised mouse model, established by intraperitoneal treatment of random outbred albino CF1 female mice (ca. 25 g) with 250 mg/kg body weight of cyclophosphamide (CY) 4 days prior to bacterial challenge with Pseudomonas aeruginosa, was used as the assay system. In this model, test compounds were injected only once (2 hours) after CY treatment. After bacterial challenge, LD50 's (50% lethal doses) were determined. Increased LD50 's in treated mice over controls indicated a return to normality. The LD50 for untreated or vehicle-treated mice was routinely 10^6 -10^7 colony forming units (CFU) of P. aeruginosa organisms. After CY treatment, the LD50 was reduced to 10^1 to 10^2 CFU's. The protection afforded by test compound (Protective Index) was determined by calculating the number of LD50 's of protection of treated animals over the LD50 of CY controls.

SMILES | Relative No. LD50's (Protective Index: number of LD50's of protection of treated animals over the LD50 of CY controls) | LD50 raised over untreated controls (cyclophosphamide-immune compromised mouse, P. aeruginosa lethal challenge) [fold]
CC1CCCCC1NCc1ccc2c(CNC3CCCCC3C)c(O)ccc2c1O (mixture of isomers) [Example 5, 1,6-Dihydroxy-2,5-bis-(2-methylcyclohexylaminomethyl)-naphthalene dihydrochloride (mixture of isomers)] | 133 | 
CC(C)(C)C1CCC(NCc2ccc3c(CNC4CCC(C(C)(C)C)CC4)c(O)ccc3c2O)CC1 (mixture of isomers) [Example 3, 1,6-Dihydroxy-2,5-bis-(4-tert-butylcyclohexylaminomethyl)-naphthalene dihydrochloride (mixture of isomers)] | 2128 | 
CC1CCCC(NCc2ccc3c(CNC4CCCC(C)C4)c(O)ccc3c2O)C1 (mixture of isomers) [Example 6, 1,6-Dihydroxy-2,5-bis-(3-methylcyclohexylaminomethyl)-naphthalene dihydrochloride (mixture of isomers)] | 151 | 
Cl.Cl.Oc1ccc2c(O)c(CNCC3CCCCC3)ccc2c1CNCC1CCCCC1 [Example 2, 1,6-Dihydroxy-2,5-bis-(cyclohexylmethylaminomethyl)-naphthalene dihydrochloride] | 320 | 
C[C@H]1CC[C@H](NCc2ccc3c(CN[C@H]4CC[C@H](C)CC4)c(O)ccc3c2O)CC1.Cl.Cl [Example 7, 1,6-Dihydroxy-2,5-bis-(trans-4-methylcyclohexylaminomethyl)-naphthalene dihydrochloride] | 1000 | 
CC(C)(C)C1CCC(NCc2ccc3c(CNC4CCC(C(C)(C)C)CC4)c(O)ccc3c2O)CC1.Cl.Cl (single isomer, unassigned) [Example 4, 1,6-Dihydroxy-2,5-bis-(4-tert-butylcyclohexylaminomethyl)-naphthalene dihydrochloride (single isomer)] | 1000 | 1000
